Structures can show the parent of a compound that is named as a salt.
Assays:
[1] = target: Angiotensin I Converting Enzyme (ACE) (Homo sapiens, UniProt P12821); assay: Inhibition of Angiotensin I Converting Enzyme (ACE), HHL substrate, hippuric acid colorimetry (modified Cushman method); assay type: biochemical; settings: 37°C for one hour, pH 8.3, read-out: Inhibitory Activity on ACE (%); for inhibition at 1 µM: Concentration 1 μM; for inhibition at 10 µM: Concentration 10 μM
Protocol: Inhibitions of Angiotensin I Converting Enzyme (ACE) by the Compounds of this Invention. The experiment was conducted in accordance with a modification of the method described by Cushman et al. [Biochemical Pharmacology, Vol. 20, 1637 (1971)]. That is, using hippuryl-L-histidyl-L-leucine (HHL) as the substrate, the ACE inhibitory activity was determined in terms of percent inhibition of the amount of hippuric acid produced by ACE when the present compound was added. A solution of the compound of the present invention dissolved in a 0.02 to 0.5% dimethyl sulfoxide-1 00 mM potassium phosphate buffer solution (pH 8.3, containing 300 mM sodium chloride) was added to 100 µl of ACE (protein concentration, 20 mg/ml) and 100 µl of -1.25 mM HHL. In this experiment, a potassium phosphate buffer solution containing dimethyl sulfoxide at a concentration equal to that of the test solution was used as a control. After incubating the solution at 37°C for one hour, 150 µl of 1 N hydrochloric acid was added to the solution to terminate the reaction. After 1 ml of ethyl acetate was added, the solution was centrifuged at 3000 r.p.m. for 10 minutes. A 0.5 ml aliquot was separated from the ethyl acetate layer and dried at a temperature below 50°C under nitrogen gas streams. The residue was mixed with 5 ml of 1 M aqueous sodium chloride and the mixture was subjected to colorimetry at a wavelength of 228 nm.

[2] = system: Hypertensive Reaction by Angiotensin I; assay: Effect against hypertensive activity of angiotensin I in rats after oral administration; assay type: in vivo, Male rats (Sprague-Dawley); settings: 13.8 µM/kg orally, angiotensin I 300 ng/kg i.v., corrected by angiotensin II reaction; for Percent Inhibition (%) against Hypertensive Reaction by Angiotensin I After 20 min.: 20 min after administration; for Percent Inhibition (%) against Hypertensive Reaction by Angiotensin I After 60 min.: 60 min after administration; for Percent Inhibition (%) against Hypertensive Reaction by Angiotensin I After 120 min.: 120 min after administration
Protocol: Effect of Present Compounds against Hypertensive Activity of Angiotensin I. Male rats (Sprague-Dawley) weighing 250 g to 350 g which were fed under free access to drinking water and feeds were used as experimental animals. The rats were anesthetized with intraperitoneal administration of pentobarbital sodium (50 mg/kg) on the day before the test day and a polyethylene tube was inserted into each of the femoral artery for measurement of blood pressure and the femoral vein for injection of angiotensin I and II, and then the tubes were fixed. […] Then, 13.8 µM/kg of the compound of this invention was administered orally as an aqueous solution or an aqueous gum arabic suspension, and 20, 60 and 120 minutes after the administration, angiotensin I and II were injected repeatedly to trace hypertensive reactions. In calculating the percent inhibition to the hypertensive activity of angiotensin I, the percent inhibitory value was corrected based on the variation with time in the hypertensive reaction by angiotensin II.

Angiotensin I Converting Enzyme (ACE), sequence (P12821 30-1306, species assumed): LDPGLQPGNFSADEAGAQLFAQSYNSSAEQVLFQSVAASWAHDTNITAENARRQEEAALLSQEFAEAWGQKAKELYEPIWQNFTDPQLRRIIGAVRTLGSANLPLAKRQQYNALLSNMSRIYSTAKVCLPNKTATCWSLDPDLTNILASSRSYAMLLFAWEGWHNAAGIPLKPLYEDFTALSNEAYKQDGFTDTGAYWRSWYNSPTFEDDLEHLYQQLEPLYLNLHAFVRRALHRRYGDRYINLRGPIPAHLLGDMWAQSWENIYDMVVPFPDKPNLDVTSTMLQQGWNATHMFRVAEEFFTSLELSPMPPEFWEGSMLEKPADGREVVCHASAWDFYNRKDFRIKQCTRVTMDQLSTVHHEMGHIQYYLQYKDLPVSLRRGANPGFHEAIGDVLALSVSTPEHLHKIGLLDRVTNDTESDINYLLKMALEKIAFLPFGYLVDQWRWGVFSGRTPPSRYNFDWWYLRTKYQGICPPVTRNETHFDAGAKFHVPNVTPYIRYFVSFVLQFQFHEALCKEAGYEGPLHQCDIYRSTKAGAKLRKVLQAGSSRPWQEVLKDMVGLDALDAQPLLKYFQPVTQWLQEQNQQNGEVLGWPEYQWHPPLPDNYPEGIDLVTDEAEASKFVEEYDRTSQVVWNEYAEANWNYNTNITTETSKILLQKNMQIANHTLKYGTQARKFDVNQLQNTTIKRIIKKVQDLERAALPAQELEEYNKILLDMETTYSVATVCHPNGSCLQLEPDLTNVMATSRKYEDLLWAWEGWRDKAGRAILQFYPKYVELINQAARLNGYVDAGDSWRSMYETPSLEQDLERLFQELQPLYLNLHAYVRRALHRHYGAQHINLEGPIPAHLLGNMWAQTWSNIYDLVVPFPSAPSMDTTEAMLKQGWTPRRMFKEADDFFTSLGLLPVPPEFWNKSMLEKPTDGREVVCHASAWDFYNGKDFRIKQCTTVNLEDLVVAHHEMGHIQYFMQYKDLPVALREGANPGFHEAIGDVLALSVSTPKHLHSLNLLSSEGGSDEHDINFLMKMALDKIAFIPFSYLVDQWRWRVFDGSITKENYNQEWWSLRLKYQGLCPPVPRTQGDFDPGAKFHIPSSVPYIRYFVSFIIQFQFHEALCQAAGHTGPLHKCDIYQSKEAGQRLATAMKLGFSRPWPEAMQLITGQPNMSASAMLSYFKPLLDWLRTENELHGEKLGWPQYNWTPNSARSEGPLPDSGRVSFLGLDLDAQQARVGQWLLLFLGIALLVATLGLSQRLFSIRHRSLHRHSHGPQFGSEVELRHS

| Structure (SMILES) | inhibition at 1 µM [1] | inhibition at 10 µM [1] | Percent Inhibition (%) against Hypertensive Reaction by Angiotensin I After 20 min. [2] | Percent Inhibition (%) against Hypertensive Reaction by Angiotensin I After 60 min. [2] | Percent Inhibition (%) against Hypertensive Reaction by Angiotensin I After 120 min. [2] |
| --- | --- | --- | --- | --- | --- |
| CCCCOC(=O)C(CCc1ccccc1)N[C@@H](C)C(=O)N(CC(=O)O)C1CCCCCC1 (stereo partly drawn) [Example 7, N-(1-butoxycarbonyl-3-phenylpropyl)-L-alanyl-N-cycloheptylglycine hydrochloride] | 88% | 98% | – | – | – |
| CCCCOC(=O)[C@H](CCc1ccccc1)N[C@@H](C)C(=O)N(CC(=O)O)C1CCCC1.Cl [Example 12, N-[1-(S)-butoxycarbonyl-3-phenylpropyl]-L-alanyl-N-cyclopentylglycine hydrochloride] | – | – | 95% | 85% | 76% |
| CCOC(=O)C(CCc1ccccc1)N[C@@H](C)C(=O)N(CC(=O)O)C1CCCC1.Cl (stereo partly drawn) [Example 1, N-(1-ethoxycarbonyl-3-phenylpropyl)-L-alanyl-N-cyclopentylglycine hydrochloride] | 84% | 96% | 92% | 82% | 82% |

Now from value to molecule, other results behind:

| inhibition at 1 µM [1] | inhibition at 10 µM [1] | Structure (SMILES) | Percent Inhibition (%) against Hypertensive Reaction by Angiotensin I After 20 min. [2] | Percent Inhibition (%) against Hypertensive Reaction by Angiotensin I After 60 min. [2] | Percent Inhibition (%) against Hypertensive Reaction by Angiotensin I After 120 min. [2] |
| --- | --- | --- | --- | --- | --- |
| 73% | 93% | CCOC(=O)C(CCc1ccccc1)N[C@@H](C)C(=O)N(CC(=O)O)C1C2CC3CC(C2)CC1C3 (stereo partly drawn) [Example 19, N-(1-ethoxycarbonyl-3-phenylpropyl)-L-alanyl-N-(2-adamantyl)glycine hydrobromide] | – | – | – |
| 78% | 99% | CCOC(=O)C(CCc1ccccc1)NC(C)C(=O)N(CC(=O)O)C1CC2CCC1C2 [Example 17, N-[1-(2)-ethoxycarbonyl-3-phenylpropyl]-L-alanyl-N-(2-exonorbornyl)glycine hydrobromide] | – | – | – |
| 64% | 90% | CCOC(=O)C(CCc1ccccc1)N[C@@H](C)C(=O)N(CC(=O)O)C1CCCCC1.Cl (stereo partly drawn) [Example 2, N-(1-ethoxycarbonyl-3-phenylpropyl)-L-alanyl-N-cyclohexylglycine hydrochloride] | 82% | 82% | 77% |
| 93% | 100% | C[C@H](NC(CCc1ccccc1)C(=O)O)C(=O)N(CC(=O)O)C1CCCC1 (stereo partly drawn) [Example 13, N-(1-carboxy-3-phenylpropyl)-L-alanyl-N-cyclopentylglycine] | 58% | 64% | 62% |

Source: patent publication EP0057998B1, “Alicyclic compounds, their production and use” (Takeda Chemical Industries, Ltd., priority 1981, dated 1982)
